Laboratory results taken from patent US5541217A, “4-arylcyclopenta[c]pyrrole analgesics” (Ortho Pharmaceutical Corporation, priority 1995, dated 1996).

System: acetylcholine-bromide induced abdominal constriction response
Test: Mouse Acetylcholine Bromide-Induced Abdominal Constriction Assay
Format: in vivo
Conditions: po, 30 min before i.p. 5.5 mg/kg acetylcholine bromide, 10 min observation

**Q.** For `CN1C[C@H]2CC[C@](O)(c3ccccc3)[C@H]2C1` (relative stereo) [Cp-1], which “% Inhibition at 30 mg/kg” value is on record?
**A.** 87%

**Q.** How did the “% Inhibition at 30 mg/kg” value turn out when `CN1C[C@H]2CC[C@](O)(c3ccc(F)cc3)[C@H]2C1` (relative stereo) [Cp-2] was run?
**A.** 87%

**Q.** Which “% Inhibition at 30 mg/kg” value does the source give for `CN1C[C@H]2CC[C@](O)(c3cccc(C(F)(F)F)c3)[C@H]2C1` (relative stereo) [Cp-3] here?
**A.** 87%

**Q.** `CN1C[C@H]2CC[C@@H](c3ccc(F)cc3)[C@H]2C1` (relative stereo) [Cp-5] was tested. Which “% Inhibition at 30 mg/kg” value did it give?
**A.** 87%

Same assay, conditions: sc, 30 min before i.p. 5.5 mg/kg acetylcholine bromide, 10 min observation

**Q.** Which “% Inhibition at 30 mg/kg” value does the source give for `CN1C[C@H]2CC[C@@H](c3ccccc3)[C@H]2C1` (relative stereo) [Cp-4] here?
**A.** 100%

**Q.** `CN1C[C@H]2CC[C@@H](c3cccc(C(F)(F)F)c3)[C@H]2C1` (relative stereo) [Cp-6] was tested. Which “% Inhibition at 30 mg/kg” value did it give?
**A.** 87%

**Q.** How did the “% Inhibition at 30 mg/kg” value turn out when `CN1C[C@H]2CC[C@H](c3ccccc3)[C@H]2C1` (relative stereo) [Cp-7] was run?
**A.** 100%
